Data reported in US20260191838A1, “COMBINATIONS COMPRISING A MENIN-MLL INHIBITOR AND A BCL-2 INHIBITOR” (JANSSEN PHARMACEUTICA NV, priority 2022, published 2026).

Test system: MOLM-13 (KMT2A-r) cell line
Assay: In vitro proliferation (spheroid confluence, Incucyte), Compound 51 with venetoclax and optionally azacitidine, MOLM-13
Assay type: cell-based, human
Protocol: 3b) In Vitro Proliferation—Menin-MLL Inhibitor in Combination with Venetoclax and Optionally, Azacitidine
The effect of Compound 51, alone or in combination with venetoclax, or in combination with venetoclax+azacitidine, was determined in proliferation assays using the MOLM-13 (KMT2A-r) cell line.
MOLM-13 cells were seeded in 96-well, round-bottom, ultra-low attachment plates. The following dilution series were used: Compound 51 at an initial concentration of 1 μM, followed by a 5- or 6-point, 4-fold serial dilution series; azacitidine at an initial concentration of 25 μM, followed by a 6-point, 5-fold serial dilution series; and venetoclax at an initial concentration of 3 μM, followed by a 5- or 6-point, 5-fold serial dilution series. In the combination treatments that included venetoclax, venetoclax was added to the cells 4 days after treatment with Compound 51 and/or azacitidine was initiated. The triplet combination of Compound 51, in a checkerboard titration design with azacitidine+venetoclax, was tested at the same concentrations.
The optimal cell seeding number (500 cells/well) was chosen based on growth curves to ensure linear growth throughout the entire experiment. The DMSO content was normalized to 0.3% and cells were incubated for 8 days at 37° C., 5% CO2. Spheroid-like growth was monitored in real-time by non-invasive live-cell imaging using the 4× objective of the Incucyte ZOOM live cell imaging system (Essen BioScience), and images were acquired on Day 8. The percent confluence, as a measure of spheroid size, was determined using an integrated analysis tool that is part of the Incucyte ZOOM software “IncuCyte ZOOM 2016B” (Essen BioScience). The percent confluence from the DMSO well was used as baseline response. Each experiment contained 4 replicates of each condition and the experiment was performed 3 times. Potential combination effects were analyzed for synergy using an R-based Biochemically Intuitive Generalized Loewe (BIGL) model implemented with a highest single agent (HSA) null model (Van der Borght 2017).

CC(=O)N1CCC(CN2CC[C@@H](Cc3cn(-c4ccc(F)cc4C(=O)N(C)C(C)C)c4cncc(C)c34)C2)CC1 [Compound 51]
Effect size (BIGL, HSA null model) (doublet: Compound 51 0.0002 μM, Venetoclax 0.0003 μM): 0.02
Effect size (BIGL, HSA null model) (doublet: Compound 51 0.0002 μM, Venetoclax 0.0016 μM): 0.01
Effect size (BIGL, HSA null model) (doublet: Compound 51 0.0002 μM, Venetoclax 0.008 μM): 0.05
Effect size (BIGL, HSA null model) (doublet: Compound 51 0.0002 μM, Venetoclax 0.04 μM): 0.02
Effect size (BIGL, HSA null model) (doublet: Compound 51 0.0002 μM, Venetoclax 0.2 μM): 0.08
Effect size (BIGL, HSA null model) (doublet: Compound 51 0.0002 μM, Venetoclax 1 μM): −0.05
Effect size (BIGL, HSA null model) (doublet: Compound 51 0.001 μM, Venetoclax 0.0003 μM): 0.01
Effect size (BIGL, HSA null model) (doublet: Compound 51 0.001 μM, Venetoclax 0.0016 μM): 0.03
Effect size (BIGL, HSA null model) (doublet: Compound 51 0.001 μM, Venetoclax 0.008 μM): 0.02
Effect size (BIGL, HSA null model) (doublet: Compound 51 0.001 μM, Venetoclax 0.04 μM): 0.00
Effect size (BIGL, HSA null model) (doublet: Compound 51 0.001 μM, Venetoclax 0.2 μM): 0.05
Effect size (BIGL, HSA null model) (doublet: Compound 51 0.001 μM, Venetoclax 1 μM): −0.05
Effect size (BIGL, HSA null model) (doublet: Compound 51 0.004 μM, Venetoclax 0.0003 μM): 0.05
Effect size (BIGL, HSA null model) (doublet: Compound 51 0.004 μM, Venetoclax 0.0016 μM): 0.04
Effect size (BIGL, HSA null model) (doublet: Compound 51 0.004 μM, Venetoclax 0.008 μM): 0.04
Effect size (BIGL, HSA null model) (doublet: Compound 51 0.004 μM, Venetoclax 0.04 μM): −0.03
Effect size (BIGL, HSA null model) (doublet: Compound 51 0.004 μM, Venetoclax 0.2 μM): 0.40
Effect size (BIGL, HSA null model) (doublet: Compound 51 0.004 μM, Venetoclax 1 μM): −0.09
Effect size (BIGL, HSA null model) (doublet: Compound 51 0.0156 μM, Venetoclax 0.0003 μM): −0.04
Effect size (BIGL, HSA null model) (doublet: Compound 51 0.0156 μM, Venetoclax 0.008 μM): −0.27
Effect size (BIGL, HSA null model) (doublet: Compound 51 0.0156 μM, Venetoclax 0.04 μM): −0.42
Effect size (BIGL, HSA null model) (doublet: Compound 51 0.0156 μM, Venetoclax 0.2 μM): −0.24
Effect size (BIGL, HSA null model) (doublet: Compound 51 0.0156 μM, Venetoclax 1 μM): −0.18
Effect size (BIGL, HSA null model) (doublet: Compound 51 0.0625 μM, Venetoclax 0.0003 μM): −0.01
Effect size (BIGL, HSA null model) (doublet: Compound 51 0.0625 μM, Venetoclax 0.0016 μM): −0.04
Effect size (BIGL, HSA null model) (doublet: Compound 51 0.0625 μM, Venetoclax 0.008 μM): −0.12
Effect size (BIGL, HSA null model) (doublet: Compound 51 0.0625 μM, Venetoclax 0.04 μM): −0.15
Effect size (BIGL, HSA null model) (doublet: Compound 51 0.0625 μM, Venetoclax 0.2 μM): −0.15
Effect size (BIGL, HSA null model) (doublet: Compound 51 0.0625 μM, Venetoclax 1 μM): −0.16
Effect size (BIGL, HSA null model) (doublet: Compound 51 0.25 μM, Venetoclax 0.0003 μM): 0.00
Effect size (BIGL, HSA null model) (doublet: Compound 51 0.25 μM, Venetoclax 0.0016 μM): 0.11
Effect size (BIGL, HSA null model) (doublet: Compound 51 0.25 μM, Venetoclax 0.008 μM): −0.05
Effect size (BIGL, HSA null model) (doublet: Compound 51 0.25 μM, Venetoclax 0.04 μM): −0.07
Effect size (BIGL, HSA null model) (doublet: Compound 51 0.25 μM, Venetoclax 0.2 μM): −0.13
Effect size (BIGL, HSA null model) (doublet: Compound 51 0.25 μM, Venetoclax 1 μM): −0.07
Effect size (BIGL, HSA null model) (doublet: Compound 51 1 μM, Venetoclax 0.0003 μM): −0.02
Effect size (BIGL, HSA null model) (doublet: Compound 51 1 μM, Venetoclax 0.0016 μM): −0.03
Effect size (BIGL, HSA null model) (doublet: Compound 51 1 μM, Venetoclax 0.008 μM): −0.07
Effect size (BIGL, HSA null model) (doublet: Compound 51 1 μM, Venetoclax 0.04 μM): −0.08
Effect size (BIGL, HSA null model) (doublet: Compound 51 1 μM, Venetoclax 0.2 μM): −0.07
Effect size (BIGL, HSA null model) (doublet: Compound 51 1 μM, Venetoclax 1 μM): −0.06
Effect size (BIGL, HSA null model) (triplet: Compound 51 0.001 μM, Venetoclax 0.0001 μM, Azacitidine 0.008 μM): 0.03
Effect size (BIGL, HSA null model) (triplet: Compound 51 0.001 μM, Venetoclax 0.0002 μM, Azacitidine 0.0016 μM): 0.03
Effect size (BIGL, HSA null model) (triplet: Compound 51 0.001 μM, Venetoclax 0.005 μM, Azacitidine 0.04 μM): 0.05
Effect size (BIGL, HSA null model) (triplet: Compound 51 0.001 μM, Venetoclax 0.024 μM, Azacitidine 0.2 μM): −0.02
Effect size (BIGL, HSA null model) (triplet: Compound 51 0.001 μM, Venetoclax 0.12 μM, Azacitidine 1 μM): 0.01
Effect size (BIGL, HSA null model) (triplet: Compound 51 0.001 μM, Venetoclax 0.6 μM, Azacitidine 5 μM): −0.03
Effect size (BIGL, HSA null model) (triplet: Compound 51 0.001 μM, Venetoclax 3 μM, Azacitidine 25 μM): 0.01
Effect size (BIGL, HSA null model) (triplet: Compound 51 0.004 μM, Venetoclax 0.0001 μM, Azacitidine 0.008 μM): 0.03
Effect size (BIGL, HSA null model) (triplet: Compound 51 0.004 μM, Venetoclax 0.0002 μM, Azacitidine 0.0016 μM): 0.04
Effect size (BIGL, HSA null model) (triplet: Compound 51 0.004 μM, Venetoclax 0.005 μM, Azacitidine 0.04 μM): 0.04
Effect size (BIGL, HSA null model) (triplet: Compound 51 0.004 μM, Venetoclax 0.024 μM, Azacitidine 0.2 μM): −0.05
Effect size (BIGL, HSA null model) (triplet: Compound 51 0.004 μM, Venetoclax 0.12 μM, Azacitidine 1 μM): −0.08
Effect size (BIGL, HSA null model) (triplet: Compound 51 0.004 μM, Venetoclax 0.6 μM, Azacitidine 5 μM): −0.03
Effect size (BIGL, HSA null model) (triplet: Compound 51 0.004 μM, Venetoclax 3 μM, Azacitidine 25 μM): 0.01
Effect size (BIGL, HSA null model) (triplet: Compound 51 0.0625 μM, Venetoclax 0.0002 μM, Azacitidine 0.0016 μM): 0.02
Effect size (BIGL, HSA null model) (triplet: Compound 51 0.25 μM, Venetoclax 0.0001 μM, Azacitidine 0.008 μM): −0.00
Effect size (BIGL, HSA null model) (triplet: Compound 51 0.25 μM, Venetoclax 0.0002 μM, Azacitidine 0.0016 μM): 0.00
Effect size (BIGL, HSA null model) (triplet: Compound 51 0.25 μM, Venetoclax 0.005 μM, Azacitidine 0.04 μM): 0.11
Effect size (BIGL, HSA null model) (triplet: Compound 51 0.25 μM, Venetoclax 0.024 μM, Azacitidine 0.2 μM): −0.07
Effect size (BIGL, HSA null model) (triplet: Compound 51 0.25 μM, Venetoclax 0.12 μM, Azacitidine 1 μM): −0.14
Effect size (BIGL, HSA null model) (triplet: Compound 51 0.25 μM, Venetoclax 0.6 μM, Azacitidine 5 μM): −0.06
Effect size (BIGL, HSA null model) (triplet: Compound 51 0.25 μM, Venetoclax 3 μM, Azacitidine 25 μM): 0.01
Effect size (BIGL, HSA null model) (triplet: Compound 51 1 μM, Venetoclax 0.0001 μM, Azacitidine 0.008 μM): −0.02
Effect size (BIGL, HSA null model) (triplet: Compound 51 1 μM, Venetoclax 0.0002 μM, Azacitidine 0.0016 μM): −0.01
Effect size (BIGL, HSA null model) (triplet: Compound 51 1 μM, Venetoclax 0.005 μM, Azacitidine 0.04 μM): −0.04
Effect size (BIGL, HSA null model) (triplet: Compound 51 1 μM, Venetoclax 0.024 μM, Azacitidine 0.2 μM): −0.08
Effect size (BIGL, HSA null model) (triplet: Compound 51 1 μM, Venetoclax 0.12 μM, Azacitidine 1 μM): −0.14
Effect size (BIGL, HSA null model) (triplet: Compound 51 1 μM, Venetoclax 0.6 μM, Azacitidine 5 μM): −0.05
Effect size (BIGL, HSA null model) (triplet: Compound 51 1 μM, Venetoclax 3 μM, Azacitidine 25 μM): 0.02
